The results in this text go back to PubChem BioAssay AID1259407 (Chemical Carcinogenesis Research Information System (CCRIS), 2018).

For this data set, the system named is CCRIS mutagenicity, Ames/micronucleus/aberration tests. Description: CCRIS mutagenicity studies.
Where [1] appears, read: Test System: AMES SALMONELLA TYPHIMURIUM, Strain/Indicator: TA98, Metabolic Activation: NONE, Method: STANDARD PLATE.
[2] abbreviates: Test System: AMES SALMONELLA TYPHIMURIUM, Strain/Indicator: TA98, Metabolic Activation: RAT, LIVER, S-9, AROCLOR 1254, Method: STANDARD PLATE.

Activity calls are given as the source filed them. No rule for the calls is given here.

As to `CN(C)c1ccc(C(=N)c2ccc(N(C)C)cc2)cc1`, the mutagenic call (Test System: AMES SALMONELLA TYPHIMURIUM, Strain/Indicator: TA97, Metabolic Activation: NONE, Method: STANDARD PLATE) was “inactive; negative”; the mutagenic call (Test System: AMES SALMONELLA TYPHIMURIUM, Strain/Indicator: TA97, Metabolic Activation: RAT, LIVER, S-9, AROCLOR 1254, Method: STANDARD PLATE) is “inactive; negative”; the mutagenic call (Test System: AMES SALMONELLA TYPHIMURIUM, Strain/Indicator: TA98, Metabolic Activation: HAMSTER, LIVER, S-9, AROCLOR 1254 (30%), Method: PREINCUBATION) is “active; positive”; the mutagenic call (Test System: AMES SALMONELLA TYPHIMURIUM, Strain/Indicator: TA98, Metabolic Activation: NONE, Method: PREINCUBATION) is “inactive; negative”; the mutagenic call under setting [1] is “inactive; negative”; the mutagenic call (Test System: AMES SALMONELLA TYPHIMURIUM, Strain/Indicator: TA98, Metabolic Activation: RAT, LIVER, S-9, AROCLOR 1254 (30%), Method: PREINCUBATION) was “active; positive”. Also, the mutagenic call runs as follows: under setting [2], “inactive; negative”; (Test System: AMES SALMONELLA TYPHIMURIUM, Strain/Indicator: TA100, Metabolic Activation: HAMSTER, LIVER, S-9, AROCLOR 1254 (30%), Method: PREINCUBATION) “inactive; negative”; (Test System: AMES SALMONELLA TYPHIMURIUM, Strain/Indicator: TA100, Metabolic Activation: NONE, Method: PREINCUBATION) “inactive; negative”; (Test System: AMES SALMONELLA TYPHIMURIUM, Strain/Indicator: TA100, Metabolic Activation: NONE, Method: STANDARD PLATE) “inactive; negative”; (Test System: AMES SALMONELLA TYPHIMURIUM, Strain/Indicator: TA100, Metabolic Activation: RAT, LIVER, S-9, AROCLOR 1254 (30%), Method: PREINCUBATION) “inactive; negative”; (Test System: AMES SALMONELLA TYPHIMURIUM, Strain/Indicator: TA100, Metabolic Activation: RAT, LIVER, S-9, AROCLOR 1254, Method: STANDARD PLATE) “inactive; negative”. Moreover, the mutagenic call is “active; positive” (Test System: AMES SALMONELLA TYPHIMURIUM, Strain/Indicator: TA1538, Metabolic Activation: HAMSTER, LIVER, S-9, AROCLOR 1254 (30%), Method: PREINCUBATION); “active; positive” (Test System: AMES SALMONELLA TYPHIMURIUM, Strain/Indicator: TA1538, Metabolic Activation: RAT, LIVER, S-9, AROCLOR 1254 (30%), Method: PREINCUBATION); “inactive; negative” (Test System: CHINESE HAMSTER V-79, Strain/Indicator: V-79/6-THIOGUANINE, Metabolic Activation: NONE, Method: SUSPENSION/PLATE); “active; positive” (Test System: CHINESE HAMSTER V-79, Strain/Indicator: V-79/6-THIOGUANINE, Metabolic Activation: RAT, LIVER, S-9, PHENOBARBITAL AND BETA-NAPHTHOFLAVONE, Method: SUSPENSION/PLATE).

For the compound `O=[N+]([O-])c1cc2c(cc1O)[nH]c1ccccc12`, the mutagenic call by setting is: (Test System: AMES SALMONELLA TYPHIMURIUM, Strain/Indicator: TA98(NR), Metabolic Activation: NONE, Method: STANDARD PLATE) “active; positive”; (Test System: AMES SALMONELLA TYPHIMURIUM, Strain/Indicator: TA98(NR), Metabolic Activation: RAT, LIVER, S-9, AROCLOR 1254, Method: STANDARD PLATE) “active; positive”; under setting [1], “active; positive”; under setting [2], “active; positive”.
